From article PMC8092912 (Antimicrobial Agents and Chemotherapy, 2021)
Like-named read-outs stand apart in the source and are kept apart here.

How the values were obtained:
HIV-1 G140S+Q148H = test: Antiviral activity against G140S+Q148H HIV-1 in the MT-2 cell line; type: cell-based; details: for EC50: Human immunodeficiency virus 1, MT2; for Fold change of EC50, G140S+Q148H (reduced susceptibility): versus WT
HIV-1 strain NL4.3 WT = test: Drug washout, viral replication (RT activity in culture supernatant) of WT virus in MT-2 cells; type: cell-based; details: for Time WT viral replication remained inhibited after washout: drug at 20 times IC90, washout 3 days postinfection; for WT viral replication after washout: drug at 20 times IC90, 4 days after washout
Procedure: (§1) We then washed away the inhibitors 3 days postinfection and quantified the reverse transcriptase activity in the culture supernatant to evaluate viral growth as described on washout days 0, 4, and 8 ([10], [11]). […] Longer experiments would be required to further differentiate BIC and DTG in washout experiments using WT virus.
(§2) Replication was assessed by measuring RT activity in culture supernatant without and after drug washout. Bar graphs, mean ± SEM. Statistical significance of drug washout with drug control conditions were assessed by adjusted P value with Tukey’s test: *, <0.05; ***, <0.001; and ****, <0.0001. For the washout experiments, BIC and EVG were synthesized at Gilead Sciences, Inc., DTG was purchased from Toronto Research Chemicals (ON, Canada), and RAL was provided by Merck, Inc.

[1] = target: T1, G140S+Q148H mutant HIV-1 IN-DNA complexes (Human immunodeficiency virus type 1 group M subtype B, UniProt P04585, G1287S/Q1295H); details: for Apparent t1/2, G140S+Q148H: 37°C, single exponential decay
Procedure: (§3) Data sets were analyzed using a single exponential decay equation as previously published for INSTIs ([3]).

HIV-1 WT = test: Antiviral activity against WT HIV-1 in the MT-2 cell line; type: cell-based; details: Human immunodeficiency virus 1, MT2
Excerpt: TABLE 1 Structure and antiviral activity of INSTIs in the MT-2 cell line | column: Antiviral activity against HIV-1, EC50 (nM)^b (fold change) / WT

[2] = tested on: HIV-1 strain NL4.3 G140S+Q148H; test: Drug washout, viral replication (RT activity in culture supernatant) of G140S+Q148H virus in MT-2 cells; type: cell-based; details: for G140S+Q148H viral replication under constant drug pressure: drug at 20 times IC90, no washout
Procedure: as §1, §2
The G140S+Q148H mutations cause varied degrees of resistance to INSTIs.

[3] = target: T2, WT HIV-1 IN-DNA complexes (Human immunodeficiency virus type 1 group M subtype B, UniProt P04585)
Procedure: as §3

[4] = tested on: G140S+Q148H mutant HIV-1 IN-DNA complexes
Procedure: as §3

[5] = target: T1, G140S+Q148H mutant HIV-1 IN-DNA complexes; details: values in square brackets; cited from earlier work
[6] = target: T2, WT HIV-1 IN-DNA complexes; details: cited from earlier work

Row | SMILES | EC50 (HIV-1 G140S+Q148H) | Time WT viral replication remained inhibited after washout (HIV-1 strain NL4.3 WT) | Apparent t1/2, G140S+Q148H [1] | EC50 (HIV-1 WT) | G140S+Q148H viral replication under constant drug pressure [2] | Fold change of EC50, G140S+Q148H (reduced susceptibility) (HIV-1 G140S+Q148H) | Apparent t1/2, WT ([3]; 37°C, single exponential decay) | koff, WT ([3]; 37°C, single exponential decay) | Apparent t1/2, G140S+Q148H, fold change vs WT [4] | koff, G140S+Q148H, fold change vs WT [4] | Apparent t1/2, G140S+Q148H [5] | koff, G140S+Q148H [5] | WT viral replication after washout (HIV-1 strain NL4.3 WT) | further results
1 | O=C(NCc1c(F)cc(F)cc1F)c1cn2c(c(O)c1=O)C(=O)N1[C@H]3CC[C@H](C3)O[C@@H]1C2 [BIC, bictegravir] | 3.1 ± 0.8 nM | at least 8 days | 5.7 ± 0.4 h | 1.5 ± 0.2 nM | very low levels of replication |  |  |  |  |  |  |  |  | Suppression of the G140S+Q148H virus after washout ([2]; drug at 20 times IC90, after 8 days of washout): > 80%
2 | O=C(NCc1ccc(F)cc1F)c1cn2c(c(O)c1=O)C(=O)N1[C@H]3CC[C@H](C3)O[C@@H]1C2 [Compound 1] | 4.5 ± 1.8 nM |  | 4.8 ± 0.2 h | 1.4 ± 0.5 nM |  | 3.2 fold | 155 ± 25 h | 1.3 ± 0.2 s^−1 (×10^−6) | 32 fold | 0.03 fold |  |  |  | 
3 | O=C(NCc1c(F)cc(F)cc1F)c1cn2c(c(O)c1=O)C(=O)N1[C@@H]3CC[C@@H](C3)O[C@H]1C2 [Compound 2] | 11.1 ± 0.5 nM |  | 1.7 ± 0.2 h | 1.5 ± 0.5 nM |  |  |  |  |  |  |  |  |  | 
4 | C[C@@H]1CCO[C@H]2Cn3cc(C(=O)NCc4ccc(F)cc4F)c(=O)c(O)c3C(=O)N12 [DTG, dolutegravir] | 6.5 ± 1.2 nM | at least 8 days | 1.9 ± 0.2 h | 1.5 ± 0.2 nM | low replication | 4.3 fold | 96 ± 29 h | 2.2 ± 0.7 s^−1 (×10^−6) | 51 fold | 0.02 fold | 3.3 h | 58 ± 8 s^−1 (×10^−6) |  | Apparent t1/2, WT ([6]; values in square brackets): 71 h; koff, WT ([6]; values in square brackets): 2.7 ± 0.4 s^−1 (×10^−6); G140S+Q148H viral replication after washout ([2]; drug at 20 times IC90, 4 and 8 days after washout): significant viral replication
5 | COc1cc2c(cc1Cc1cccc(Cl)c1F)c(=O)c(C(=O)O)cn2[C@H](CO)C(C)C [EVG, elvitegravir] | 868 ± 138 nM |  |  | 2.1 ± 0.9 nM |  |  |  |  |  |  |  |  | detectable viral replication | 
6 | Cc1nnc(C(=O)NC(C)(C)c2nc(C(=O)NCc3ccc(F)cc3)c(O)c(=O)n2C)o1 [RAL, raltegravir] | 2460 nM |  |  | 9.4 ± 1.4 nM |  |  |  |  |  |  | ND [0.2] h | ND [1,130] s^−1 (×10^−6) | detectable viral replication | Binding to G140S+Q148H IN-DNA complexes for determination of dissociation kinetics [1]: insufficient level of binding; koff, WT [3]: 21 ± 6 [22 ± 2]; Apparent t1/2, WT ([3]; recombinant enzyme): 10 ± 2 [8.8] h; Apparent t1/2, WT [6]: 10 ± 2 [8.8] h; koff, WT [6]: 21 ± 6 [22 ± 2]
